Experimental findings from US20230022796A1 (Merck Patent GmbH, priority 2019, published 2023) are described below.

Assay [1] deals with CHO cell line producing mAb1. Put plainly: Glycosylation profile (UPLC-MS of released glycans) of mAb1 from fed-batch. The assay is classed as cell-based, Chinese hamster. The note with it: for reduction of the fucosylation compared to the control: mAb1, same concentration of both additives. On the procedure: Glycosylation patterns were analyzed by ultra-performance liquid chromatography coupled to a mass spectrometer (UPLC-MS). The purified antibody was denaturated and the glycans were released from the antibody by digestion with peptide N-glycosidase F (PNGase F) followed by labeling the glycans with the GlycoWorks™ RapiFluor-MS™ N-Glycan Kit according to the manufacturer protocol. For the analysis, an UPLC glycan column (2.1×150 mm) that separated the glycans according to their […] was used. The chromatography was performed at 45° C. using 50 mM ammonium formate (A), pH 4.4 solution and an acetonitrile (B) gradient. In detail, at the beginning the ratio of A:B was 20:80 (0 min) and changed to 27:73 at 3 min and 37:63 at 35 min at a flow rate of 0.5 ml/min. From 36.5 min to 39.5 min only A was used as mobile phase and the flow rate was reduced to 0.2 ml/min. Subsequently, the ratio was changed to 20% A:80% B and the flowrate was increased to 0.5 ml/min at 43.1 min until the end of the process at 55 min. The detection was performed by a fluorescence detector with an excitation wavelength of 265 nm and an emission wavelength of 425 nm. The identification of the glycan structures was performed by MS using positive electro spray ionization (ESI), which was calibrated every 30 s with a standard.
Four different clones of Chinese hamster ovary (CHO) cells expressing three different monoclonal antibodies (mAb) and a fusion protein were tested. Cells were cultivated in spin tubes between 14 and 20 days at 37° C., 5% CO2, and 80% humidity. As starting cell density, 3×10^5 cells/mL in 30 mL Cellvento®4CHO media (pH 7.0±0.1) was used for clone 1 and 2 producing mAb1 and mAb2, respectively (Cellvento® Platform). Cells were cultivated at an agitation of 320 rpm and were fed on day 3, 5, 10, 12 and 14 with 3% volume of Cellvento® 4Feed (v/v) and on day 7 with 6% (v/v) of the feed. Clone 3 and 4 producing mAb3 and a fusion protein were inoculated at the same cell density in 30 mL Ex-Cell® Advanced Media (pH 7.2±0.1) while agitation was set to 230 rpm (Ex-Cell® Platform). Clones 3 and 4 were fed with […] Advanced Feed (v/v) on day 3, 5, 7, 10, 12, 14 and 17. […] The pH of all Cellvento® feeds was adjusted to 7.0±0.1 and Ex-Cell® Feeds were adjusted to 8.5±0.1. The glucose level was maintained above 4 g/L by adding a specific amount of a 400 g/L glucose stock solution on demand to up to 6 g/L during the week and up to 13 g/L over the weekend. Glucose and titer were detected in the supernatant with the bioprocess analyzer CEDEX Bio HT (Roche, Mannheim, Germany).
To investigate the glycosylation profile during the fed-batch experiment samples were centrifugated and antibodies and Fc-fusion proteins were purified from the cell culture supernatant using protein A PhyTips® (PhyNexus Inc, San Jose, Calif.). Glycosylation patterns were analyzed as described by ultra-performance liquid chromatography coupled to a mass spectrometer (UPLC-MS) using the GlycoWorks™ RapiFluor-MS™ N-Glycan Kit.
Glycosylation profile on day 12 was visualized since harvest of recombinant produced proteins on day 12 is common. Quantification of the glycans was obtained using the relative peak area of the fluorescence signal. Almost all peaks were assigned to glycan structures according to their mass. Unknown glycan structures and signals without mass detection were summarized as unknown species (not shown). Four different clones of Chinese hamster ovary (CHO) cells expressing three different monoclonal antibodies (mAb) and a fusion protein were tested. […] The known positive control achieved a […] level on day 12 by increasing the afucosylation to 78%. The same amount of afucosylation compared to the known fucose-analogue acetylated 2F-Fucose was only achieved by clone 3 expressing mAb3 leading to about […] on day 12 (FIG. 8 C). […]

In the next assay the target is FcγRIIIa V176. Put plainly: Surface plasmon resonance (Biacore) binding of mAb3 from treated cultures to FcγRIIIa. As to the method: Binding of samples after 5-ThioFuc treatment was investigated by surface plasmon resonance technology using a Biacore T200 system (GE Healthcare, Uppsala, Sweden). The analysis temperature was set to 25° C. and sample compartment temperature to 15° C. […] The anti-His antibody was further used to capture His-tagged FcγRIIIa V176 ([…]) from AcroBiosystems (Newark, Del., USA).
Binding was recorded continuously, while unspecific binding and injection artefacts were subtracted automatically. Single-cycle kinetics were used with a dissociation time of 600 s at a flow rate of 30 μL/min. Data collection rate was performed at 10 Hz. Following each experiment, both flow cells were regenerated for 30 s with 10 mM glycine-HCl pH 1.5 according to kit instructions. Data of three technical and two biological replicates were fitted with a 1:1 binding model. The global dissociation constant KD was determined from the ratio of the kinetic rate constants for dissociation (kd) and association (ka) values. Data are presented in Table 1 as fold change compared to the control.
In general terms: SPR reads the build-up and loss of mass on a sensor chip optically.

In assay [2] the test system is CHO cell line producing mAb3. Nature of the assay: Fed-batch cell performance (viable cell density), clone 3 producing mAb3. The assay is classed as cell-based, Chinese hamster. The note with it: mAb3, feed with 400 μM additive. On the procedure:
Four different clones of Chinese hamster ovary (CHO) cells expressing three different monoclonal antibodies (mAb) and a fusion protein were tested. Cells were cultivated in spin tubes between 14 and 20 days at 37° C., 5% CO2, and 80% humidity. As starting cell density, 3×10^5 cells/mL in 30 mL Cellvento®4CHO media (pH 7.0±0.1) was used for clone 1 and 2 producing mAb1 and mAb2, respectively (Cellvento® Platform). Cells were cultivated at an agitation rate of 320 rpm and were fed on day 3, 5, 10, 12 and 14 with 3% volume of Cellvento® 4Feed (v/v) and on day 7 with 6% (v/v) of the feed. Clone 3 and 4 producing mAb3 and a fusion protein were inoculated at the same cell density in 30 mL Ex-Cell® Advanced Media (pH 7.2±0.1) while agitation was set to 230 rpm. Clones 3 and 4 were fed with 5% Ex-Cell® Advanced Feed (v/v) on day 3, 5, 7, 10, 12, 14 and 17. […]
The glucose level was maintained above 4 g/L by adding a specific amount of a 400 g/L glucose stock solution on demand to up to 6 g/L during the week and up to 13 g/L over the weekend. Glucose and titer were detected in the supernatant with the bioprocess analyzer CEDEX Bio HT (Roche, Mannheim, Germany) based on spectrophotometric and turbidometric methods. The viable cell density (VCD) and viability were evaluated with a Vi-CELL™ XR 2.04 cell counter (Beckman Coulter, Fullerton, Calif., USA). […]

By Kd is commonly meant the concentration at which binding is half-saturated. Read a low Kd as tighter binding. On to `C[C@@H]1SC(O)[C@@H](O)[C@H](O)[C@@H]1O` (some centres unmarked), for which, in assay [1] (mAb1, 400 μM additive, day 12), the core-fucosylated glycans entry is “about 26%”. The entries for the “reduction of the fucosylation compared to the control” value in assay [1] (day 7), in assay [1] (day 10) and in assay [1] (day 12) were 64%, 68% and 67%, respectively. The Kd came out at 85 nM at FcγRIIIa V176 (mAb3 from culture fed with 50 μM additive, day 5); 63 nM at FcγRIIIa V176 (mAb3 from culture fed with 50 μM additive, day 12); 61 nM on FcγRIIIa V176 (mAb3 from culture fed with 50 μM additive, day 14); 52 nM at FcγRIIIa V176 (mAb3 from culture fed with 200 μM additive, day 5); 40 nM on FcγRIIIa V176 (mAb3 from culture fed with 200 μM additive, day 12); 28 nM at FcγRIIIa V176 (mAb3 from culture fed with 200 μM additive, day 14). Further, the Kd at FcγRIIIa V176 (mAb3 from culture fed with 400 μM additive, day 5) turned out to be 35 nM; on FcγRIIIa V176 (mAb3 from culture fed with 400 μM additive, day 12), 32 nM; at FcγRIIIa V176 (mAb3 from culture fed with 800 μM additive, day 5), 40 nM. Moreover, in assay [2], the “reduced VCD (area under the curve until day 17, compared to the control)” value is “about 13%”.
